Assay results as given in the supplement of paper PMC11061612.

Columns and labels:
U-698-M [1] = assay: combination Emax (second highest fraction inhibited in the dose matrix, 72 h); higher = more inhibition; details: B-Cell Non-Hodgkin's Lymphoma
How it was run: (§1)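 Cell lines in DMEM/F12 or RPMI with 10% FBS were plated in 1536-well plates, held 24 hours at 37°C, 5% CO2, then given two-drug dose matrices for 72 hours (DMSO typically 0.2%). Viability was read by CellTiter-Glo 2.0 luminescence and scaled as inhibition from 0 (vehicle wells) to 1 (blank wells). Combination Emax is the second-highest inhibition in the matrix; Bliss excess is observed combination effect minus expected EA + EB − EA·EB, EA and EB being single-agent effects.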

U-698-M [2] = assay: Bliss excess, mean over the matrix (fraction); higher = more synergy; details: U-[…], B-Cell Non-Hodgkin's Lymphoma
How it was run: as §1

[3] = first compound max 10 µM, partner max 2 µM, 7x7
[4] = first compound max 10 µM, partner max 10 µM, 7x7
[5] = first compound max 2 µM, partner max 1 µM, 7x7
[6] = first compound max 1 µM, partner max 10 µM, 7x7
[7] = first compound max 10 µM, partner max 0.3 µM, 7x7
[8] = first compound max 10 µM, partner max 1 µM, 7x7
[9] = first compound max 0.001 µM, partner max 10 µM, 7x7
[10] = first compound max 0.3 µM, partner max 1 µM, 7x7
[11] = first compound max 0.3 µM, partner max 10 µM, 7x7
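Wherever Bliss excess, mean over the matrix is given: after 72 h of two-drug dosing.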

## C[C@@H](Oc1cc(-c2cnn(C3CCNCC3)c2)cnc1N)c1c(Cl)ccc(F)c1Cl [Crizotinib] + CC1=C(C(=CC=C1)Cl)NC(=O)C2=CN=C(S2)NC3=CC(=NC(=N3)C)N4CCN(CC4)CCO [Dasatinib]
U-698-M [1]; [3]
  combination Emax: 0.861
U-698-M [2]; [3]
  Bliss excess: -0.0005

## C[C@@H](Oc1cc(-c2cnn(C3CCNCC3)c2)cnc1N)c1c(Cl)ccc(F)c1Cl [Crizotinib] + Cn1cnc2c(F)c(Nc3ccc(Br)cc3Cl)c(C(=O)NOCCO)cc21 [Selumetinib]
U-698-M [1]; [4]
  combination Emax: 0.752
U-698-M [2]; [4]
  Bliss excess: -0.0663

## Cc1nc(Nc2ncc(C(=O)Nc3c(C)cccc3Cl)s2)cc(N2CCN(CCO)CC2)n1 [Dasatinib] + CC(=O)Nc1cccc(-n2c(=O)n(C3CC3)c(=O)c3c(Nc4ccc(I)cc4F)n(C)c(=O)c(C)c32)c1 [Trametinib]
U-698-M [1]; [5]
  combination Emax: 0.432
U-698-M [2]; [5]
  Bliss excess: -0.0131

## COc1cccc2c1C(=O)c1c(O)c3c(c(O)c1C2=O)C[C@@](O)(C(=O)CO)C[C@@H]3O[C@H]1C[C@H](N)[C@H](O)[C@H](C)O1 [Doxorubicin] + Cc1cc2ncnn2cc1Nc1ncc2c(n1)n(C1CCOCC1)c(=O)n2C [AZD7648]
U-698-M [1]; [6]
  combination Emax: 0.909
U-698-M [2]; [6]
  Bliss excess: 0.084

## COc1cc2ncnc(Nc3ccc(F)c(Cl)c3)c2cc1OCCCN1CCOCC1 [Gefitinib] + CC(C)n1c(=O)n(C)c2cnc3cc(F)c(-c4ccc(OCCCN5CCCCC5)nc4)cc3c21 [AZD1390]
U-698-M [1]; [7]
  combination Emax: 0.354
U-698-M [2]; [7]
  Bliss excess: -0.0593

## CS(=O)(=O)CCNCc1ccc(-c2ccc3ncnc(Nc4ccc(OCc5cccc(F)c5)c(Cl)c4)c3c2)o1 [Lapatinib] + C[C@@H](Oc1cc(-c2cnn(C3CCNCC3)c2)cnc1N)c1c(Cl)ccc(F)c1Cl [Crizotinib]
U-698-M [1]; [4]
  combination Emax: 0.934
U-698-M [2]; [4]
  Bliss excess: -0.0653

## CS(=O)(=O)CCNCc1ccc(-c2ccc3ncnc(Nc4ccc(OCc5cccc(F)c5)c(Cl)c4)c3c2)o1 [Lapatinib] + Cn1cnc2c(F)c(Nc3ccc(Br)cc3Cl)c(C(=O)NOCCO)cc21 [Selumetinib]
U-698-M [1]; [4]
  combination Emax: 0.585
U-698-M [2]; [4]
  Bliss excess: -0.0215

## CS(=O)(=O)CCNCc1ccc(-c2ccc3ncnc(Nc4ccc(OCc5cccc(F)c5)c(Cl)c4)c3c2)o1 [Lapatinib] + NC1(c2ccc(-c3nc4ccn5c(=O)[nH]nc5c4cc3-c3ccccc3)cc2)CCC1 [MK-2206]
U-698-M [1]; [4]
  combination Emax: 0.905
U-698-M [2]; [4]
  Bliss excess: 0.0097

## O=C(c1cc(Cc2n[nH]c(=O)c3ccccc23)ccc1F)N1CCN(C(=O)C2CC2)CC1 [Olaparib] + CC1(C)CCC(CN2CCN(c3ccc(C(=O)NS(=O)(=O)c4ccc(NCC5CCOCC5)c([N+](=O)[O-])c4)c(Oc4cnc5[nH]ccc5c4)c3)CC2)=C(c2ccc(Cl)cc2)C1 [Venetoclax]
U-698-M [1]; [8]
  combination Emax: 0.192
U-698-M [2]; [8]
  Bliss excess: -0.0064

## O=C(c1cc(Cc2n[nH]c(=O)c3ccccc23)ccc1F)N1CCN(C(=O)C2CC2)CC1 [Olaparib] + CN(CC[C@H](CSC1=CC=CC=C1)NC2=C(C=C(C=C2)S(=O)(=O)NC(=O)C3=CC=C(C=C3)N4CCC(CC4)[C@H](C5=CC=CC=C5C6=CC=C(C=C6)Cl)O)S(=O)(=O)C(F)(F)F)CCO [AZD4320]
U-698-M [1]; [8]
  combination Emax: 0.135
U-698-M [2]; [8]
  Bliss excess: -0.0494

## O=C(c1cc(Cc2n[nH]c(=O)c3ccccc23)ccc1F)N1CCN(C(=O)C2CC2)CC1 [Olaparib] + COc1nnc2ccc(N3CCC(c4ccc(OCCN5CCN(C)C(=O)[C@H]5C)cc4)CC3)nn12 [AZD5153]
U-698-M [1]; [8]
  combination Emax: 0.578
U-698-M [2]; [8]
  Bliss excess: -0.0374

## O=C(c1cc(Cc2n[nH]c(=O)c3ccccc23)ccc1F)N1CCN(C(=O)C2CC2)CC1 [Olaparib] + Cc1c2c(nn1C)CSCc1cc(n(C)n1)CSc1cc(c3ccccc3c1)OCCCc1c(C(=O)O)n(C)c3c-2c(Cl)ccc13 [AZD5991]
U-698-M [1]; [8]
  combination Emax: 0.987
U-698-M [2]; [8]
  Bliss excess: 0.0244

## CC(=O)c1c(C)c2cnc(Nc3ccc(N4CCNCC4)cn3)nc2n(C2CCCC2)c1=O [Palbociclib] + CC1(C)CCC(CN2CCN(c3ccc(C(=O)NS(=O)(=O)c4ccc(NCC5CCOCC5)c([N+](=O)[O-])c4)c(Oc4cnc5[nH]ccc5c4)c3)CC2)=C(c2ccc(Cl)cc2)C1 [Venetoclax]
U-698-M [1]; [8]
  combination Emax: 0.548
U-698-M [2]; [8]
  Bliss excess: -0.0676

## CC(=O)c1c(C)c2cnc(Nc3ccc(N4CCNCC4)cn3)nc2n(C2CCCC2)c1=O [Palbociclib] + Cc1c2c(nn1C)CSCc1cc(n(C)n1)CSc1cc(c3ccccc3c1)OCCCc1c(C(=O)O)n(C)c3c-2c(Cl)ccc13 [AZD5991]
U-698-M [1]; [8]
  combination Emax: 0.98
U-698-M [2]; [8]
  Bliss excess: -0.0228

## CC(=O)c1c(C)c2cnc(Nc3ccc(N4CCNCC4)cn3)nc2n(C2CCCC2)c1=O [Palbociclib] + Cn1cnc2c(F)c(Nc3ccc(Br)cc3Cl)c(C(=O)NOCCO)cc21 [Selumetinib]
U-698-M [1]; [4]
  combination Emax: 0.583
U-698-M [2]; [4]
  Bliss excess: -0.0483

## COc1cccc(OCCCN)c1-c1cc(Nc2cnc(C#N)cn2)n[nH]1 [Prexasertib] + C=CCn1c(=O)c2cnc(Nc3ccc(N4CCN(C)CC4)cc3)nc2n1-c1cccc(C(C)(C)O)n1 [AZD1775]
U-698-M [1]; first compound max 1 µM, partner max 1 µM, may be a limit of the assay
  combination Emax: 1
U-698-M [2]; first compound max 1 µM, partner max 1 µM
  Bliss excess: 0.0762

## COc1cccc(OCCCN)c1-c1cc(Nc2cnc(C#N)cn2)n[nH]1 [Prexasertib] + CCc1c2c(nc3ccc(O)cc13)-c1cc3c(c(=O)n1C2)COC(=O)[C@]3(O)CC [SN-38]
U-698-M [1]; first compound max 1 µM, partner max 0.3 µM, 7x7, may be a limit of the assay
  combination Emax: 1
U-698-M [2]; first compound max 1 µM, partner max 0.3 µM, 7x7
  Bliss excess: 0.0237

## COc1cccc(OCCCN)c1-c1cc(Nc2cnc(C#N)cn2)n[nH]1 [Prexasertib] + CN(C)CCCOc1ccc(-c2ccc3ncc4c(c3c2)n(C2CCOCC2)c(=O)n4C)cn1 [AZD0156]
U-698-M [1]; first compound max 1 µM, partner max 1 µM, 7x7, may be a limit of the assay
  combination Emax: 1
U-698-M [2]; first compound max 1 µM, partner max 1 µM, 7x7
  Bliss excess: 0.0361

## COc1cccc(OCCCN)c1-c1cc(Nc2cnc(C#N)cn2)n[nH]1 [Prexasertib] + C[C@@H]1COCCN1C2=NC(=NC(=C2)C3(CC3)[S@](=N)(=O)C)C4=C5C=CNC5=NC=C4 [AZD6738]
U-698-M [1]; [6]
  combination Emax: 0.996
U-698-M [2]; [6]
  Bliss excess: -0.0348

## COc1cccc(OCCCN)c1-c1cc(Nc2cnc(C#N)cn2)n[nH]1 [Prexasertib] + Cc1cc2ncnn2cc1Nc1ncc2c(n1)n(C1CCOCC1)c(=O)n2C [AZD7648]
U-698-M [1]; [6]
  combination Emax: 0.975
U-698-M [2]; [6]
  Bliss excess: -0.0029

## COc1cccc(OCCCN)c1-c1cc(Nc2cnc(C#N)cn2)n[nH]1 [Prexasertib] + O=C(c1cc(Cc2n[nH]c(=O)c3ccccc23)ccc1F)N1CCN(C(=O)C2CC2)CC1 [Olaparib]
U-698-M [1]; [6]
  combination Emax: 0.953
U-698-M [2]; [6]
  Bliss excess: -0.0433

## COc1cc2c(cc1OCCCCCOc1cc3c(cc1OC)C(=O)N1C=C(C)C[C@H]1C=N3)N=C[C@@H]1CC(C)=CN1C2=O [SG3199] + O=C(c1cc(Cc2n[nH]c(=O)c3ccccc23)ccc1F)N1CCN(C(=O)C2CC2)CC1 [Olaparib]
U-698-M [1]; [9]
  combination Emax: 0.0822
U-698-M [2]; [9]
  Bliss excess: -0.0531

## CCc1c2c(nc3ccc(O)cc13)-c1cc3c(c(=O)n1C2)COC(=O)[C@]3(O)CC [SN-38] + CN(C)CCCOc1ccc(-c2ccc3ncc4c(c3c2)n(C2CCOCC2)c(=O)n4C)cn1 [AZD0156]
U-698-M [1]; [10]
  combination Emax: 0.908
U-698-M [2]; [10]
  Bliss excess: 0.0615

## CCc1c2c(nc3ccc(O)cc13)-c1cc3c(c(=O)n1C2)COC(=O)[C@]3(O)CC [SN-38] + O=C(c1cc(Cc2n[nH]c(=O)c3ccccc23)ccc1F)N1CCN(C(=O)C2CC2)CC1 [Olaparib]
U-698-M [1]; [11]
  combination Emax: 0.813
U-698-M [2]; [11]
  Bliss excess: 0.0095

## N#Cc1cnc(Nc2cc(NC[C@H]3CNCCO3)c(C(F)(F)F)cn2)cn1 [SRA737] + C=CCn1c(=O)c2cnc(Nc3ccc(N4CCN(C)CC4)cc3)nc2n1-c1cccc(C(C)(C)O)n1 [AZD1775]
U-698-M [1]; first compound max 10 µM, partner max 1 µM, may be a limit of the assay
  combination Emax: 1
U-698-M [2]; first compound max 10 µM, partner max 1 µM
  Bliss excess: 0.0975

## N#Cc1cnc(Nc2cc(NC[C@H]3CNCCO3)c(C(F)(F)F)cn2)cn1 [SRA737] + CCc1c2c(nc3ccc(O)cc13)-c1cc3c(c(=O)n1C2)COC(=O)[C@]3(O)CC [SN-38]
U-698-M [1]; [7]
  combination Emax: 0.963
U-698-M [2]; [7]
  Bliss excess: -0.0229

## N#Cc1cnc(Nc2cc(NC[C@H]3CNCCO3)c(C(F)(F)F)cn2)cn1 [SRA737] + Nc1ccn([C@@H]2O[C@H](CO)[C@@H](O)C2(F)F)c(=O)n1 [Gemcitabine]
U-698-M [1]; [7]
  combination Emax: 0.916
U-698-M [2]; [7]
  Bliss excess: 0.111
